#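 Step 1: Grow cells in 96-well plates. Step 2: Expose to compound for 48 hours at 5 concentrations. Step 3: Interpolate endpoints linearly; if unreached, use highest concentration. GI50: concentration for 50% inhibition of growth.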 The source made the active and inactive calls. No stated cut-off is given here; in the data, active = GI50 up to about 1.1 µM and inactive = higher.
# Experiments:
# Assay in all cases: growth of human tumour cells (NCI), 48 h
# A498 = test system: A498
# SK-MEL-5 = test system: SK-MEL-5
# OVCAR-8 = test system: OVCAR-8
# SW-620 = test system: SW-620
# OVCAR-5 = test system: OVCAR-5
# MDA-N = test system: MDA-N
# CAKI-1 = test system: CAKI-1
# 786-0 = test system: 786-0
# SF-539 = test system: SF-539
# COLO 205 = test system: COLO 205
# EKVX = test system: EKVX
# T47D = test system: T47D
# DU-145 = test system: DU-145
# NCI-H522 = test system: NCI-H522
# UACC-257 = test system: UACC-257
# CCRF-CEM = test system: CCRF-CEM
# MDA-MB-435 = test system: MDA-MB-435
# OVCAR-4 = test system: OVCAR-4
# HL-60 = test system: HL-60
# SR = test system: SR
# SK-MEL-2 = test system: SK-MEL-2
# M14 = test system: M14
# SNB-75 = test system: SNB-75
# ACHN = test system: ACHN
# A549 = test system: A549
# HCC 2998 = test system: HCC 2998
# MCF7 = test system: MCF7
# LOX IMVI = test system: LOX IMVI
# U-251 = test system: U-251
# BT-549 = test system: BT-549
# SK-OV-3 = test system: SK-OV-3
# HT-29 = test system: HT-29
# SK-MEL-28 = test system: SK-MEL-28
# HOP-62 = test system: HOP-62
# MDA-MB-231 = test system: MDA-MB-231
# PC-3 = test system: PC-3
# SF-268 = test system: SF-268
# HCT-116 = test system: HCT-116
# NCI-H226 = test system: NCI-H226
# K562 = test system: K562
# TK-10 = test system: TK-10
# SNB-19 = test system: SNB-19
# KM12 = test system: KM12
# RPMI-8226 = test system: RPMI-8226
# OVCAR-3 = test system: OVCAR-3
# IGROV-1 = test system: IGROV-1
# Malme-3M = test system: Malme-3M
# SN12C = test system: SN12C
# HCT-15 = test system: HCT-15
# MOLT-4 = test system: MOLT-4
# UACC-62 = test system: UACC-62
# NCI-H23 = test system: NCI-H23
# SF-295 = test system: SF-295
# Hs-578T = test system: Hs-578T
# NCI-H460 = test system: NCI-H460
# RXF 393 = test system: RXF 393
# UO-31 = test system: UO-31
# NCI/ADR-RES = test system: NCI/ADR-RES
smiles,measurement,setting,value
COC1C(OC(=O)c2ccc(C)[nH]2)C(O)C(Oc2ccc3c(O)c(NC(=O)c4ccc(O)c(CC=C(C)C)c4)c(=O)oc3c2Cl)OC1(C)C (centres undefined),GI50,A498,17.9 µM (inactive)
same,GI50,SK-MEL-5,19.7 µM (inactive)
same,GI50,OVCAR-8,17.9 µM (inactive)
same,GI50,SW-620,18.5 µM (inactive)
same,GI50,OVCAR-5,15.9 µM (inactive)
same,GI50,MDA-N,23 µM (inactive)
same,GI50,CAKI-1,18.7 µM (inactive)
same,GI50,786-0,15.8 µM (inactive)
same,GI50,SF-539,18 µM (inactive)
same,GI50,COLO 205,15.9 µM (inactive)
same,GI50,EKVX,18.7 µM (inactive)
same,GI50,T47D,15.9 µM (inactive)
same,GI50,DU-145,31 µM (inactive)
same,GI50,NCI-H522,13.2 µM (inactive)
same,GI50,UACC-257,54 µM (inactive)
same,GI50,CCRF-CEM,18.1 µM (inactive)
same,GI50,MDA-MB-435,30.2 µM (inactive)
same,GI50,OVCAR-4,26.6 µM (inactive)
same,GI50,HL-60,26.3 µM (inactive)
same,GI50,SR,22.5 µM (inactive)
same,GI50,SK-MEL-2,13.2 µM (inactive)
same,GI50,M14,16 µM (inactive)
same,GI50,SNB-75,19.1 µM (inactive)
same,GI50,ACHN,38.3 µM (inactive)
same,GI50,A549,24.3 µM (inactive)
same,GI50,HCC 2998,18.1 µM (inactive)
same,GI50,MCF7,18.4 µM (inactive)
same,GI50,LOX IMVI,18.1 µM (inactive)
same,GI50,U-251,12.8 µM (inactive)
same,GI50,BT-549,17 µM (inactive)
same,GI50,SK-OV-3,20.4 µM (inactive)
same,GI50,HT-29,15 µM (inactive)
same,GI50,SK-MEL-28,16.3 µM (inactive)
same,GI50,HOP-62,15.5 µM (inactive)
same,GI50,MDA-MB-231,21.1 µM (inactive)
same,GI50,PC-3,12.9 µM (inactive)
same,GI50,SF-268,17.3 µM (inactive)
same,GI50,HCT-116,16.4 µM (inactive)
same,GI50,NCI-H226,12.5 µM (inactive)
same,GI50,K562,29.6 µM (inactive)
same,GI50,TK-10,55.3 µM (inactive)
same,GI50,SNB-19,15.7 µM (inactive)
same,GI50,KM12,12.5 µM (inactive)
same,GI50,RPMI-8226,8.22 µM (inactive)
same,GI50,OVCAR-3,18.7 µM (inactive)
same,GI50,IGROV-1,15.5 µM (inactive)
same,GI50,Malme-3M,15.5 µM (inactive)
same,GI50,SN12C,20.7 µM (inactive)
same,GI50,HCT-15,18.5 µM
same,GI50,MOLT-4,16.2 µM (inactive)
same,GI50,UACC-62,15.7 µM (inactive)
same,GI50,NCI-H23,20.1 µM (inactive)
same,GI50,SF-295,17.7 µM (inactive)
same,GI50,Hs-578T,16.1 µM (inactive)
same,GI50,NCI-H460,21.2 µM (inactive)
Cc1ccc(C2C(C(=O)C(C)(C)C)N2S(=O)(=O)c2ccc(C)cc2)cc1 (centres undefined),GI50,OVCAR-8,21.3 µM (inactive)
same,GI50,SW-620,26.8 µM (inactive)
same,GI50,OVCAR-5,21.3 µM (inactive)
same,GI50,MDA-N,19.1 µM (inactive)
same,GI50,CAKI-1,26.4 µM (inactive)
same,GI50,SF-539,14.9 µM (inactive)
same,GI50,COLO 205,19.5 µM (inactive)
same,GI50,EKVX,15.7 µM (inactive)
same,GI50,T47D,21 µM (inactive)
same,GI50,DU-145,18.7 µM (inactive)
same,GI50,RXF 393,21 µM (inactive)
same,GI50,NCI-H522,16.1 µM (inactive)
same,GI50,CCRF-CEM,22.6 µM (inactive)
same,GI50,MDA-MB-435,20.9 µM (inactive)
same,GI50,OVCAR-4,30.1 µM (inactive)
same,GI50,SK-MEL-2,46.6 µM (inactive)
same,GI50,M14,17.8 µM (inactive)
same,GI50,SNB-75,19.5 µM (inactive)
same,GI50,A549,40.3 µM (inactive)
same,GI50,HCC 2998,19.1 µM (inactive)
same,GI50,MCF7,23.8 µM (inactive)
same,GI50,LOX IMVI,22.4 µM (inactive)
same,GI50,U-251,20.2 µM (inactive)
same,GI50,BT-549,17.7 µM (inactive)
same,GI50,SK-OV-3,> 100 µM (inactive)
same,GI50,HT-29,24.3 µM (inactive)
same,GI50,SK-MEL-28,28.1 µM (inactive)
same,GI50,UO-31,18.4 µM (inactive)
same,GI50,NCI/ADR-RES,23.4 µM (inactive)
same,GI50,HOP-62,33.5 µM (inactive)
same,GI50,MDA-MB-231,19.8 µM (inactive)
same,GI50,PC-3,29.7 µM (inactive)
same,GI50,SF-268,30.5 µM (inactive)
same,GI50,HCT-116,18.7 µM (inactive)
same,GI50,NCI-H226,21.3 µM (inactive)
same,GI50,K562,25.3 µM (inactive)
same,GI50,TK-10,28.6 µM (inactive)
same,GI50,SNB-19,22.5 µM (inactive)
same,GI50,KM12,34.5 µM (inactive)
same,GI50,RPMI-8226,18.9 µM (inactive)
same,GI50,OVCAR-3,26.5 µM (inactive)
same,GI50,IGROV-1,17.5 µM (inactive)
same,GI50,Malme-3M,23.2 µM (inactive)
same,GI50,SN12C,19.8 µM (inactive)
same,GI50,HCT-15,22.3 µM
same,GI50,UACC-62,15.8 µM (inactive)
same,GI50,NCI-H23,23.7 µM (inactive)
same,GI50,SF-295,41.6 µM (inactive)
same,GI50,Hs-578T,28.7 µM (inactive)

# — ChEMBL document CHEMBL1201862, “PubChem BioAssay data set” (2004)
